Experimental data: patent US7259140B2, “Heparin-binding peptides and uses thereof” (Thomas Jefferson University, priority 2003, dated 2007)
Bridge positions count the residues as written; N and C are the ends. Peptide text beside a SMILES is read from it.

Assays:
Assay type in all cases: biochemical, human
[1] = tested on: anti-Factor Xa Activity of Unfractionated Heparin; assay: Anti-Factor Xa assay: neutralization of unfractionated heparin in citrate or plasma in vitro; details: UFH 0.7 U/ml
Method: The ability of peptides such as (ARKKAAKA)3VLVLVLVL (SEQ ID NO:5) to neutralize the anti-Factor Xa activity of UFH and LMWH in vitro was tested using the Stachrom Heparin kit (Diagnostica Stago), a standard hematology laboratory assay used to measure the anti-Factor Xa activity of heparin. The assay was performed using the low molecular weight heparin enoxaparin sodium (Lovenox®, Aventis Pharmaceuticals, Inc.), unfractionated heparin (UFH), or the non-heparin glycosaminoglycan danaparoid sodium (Orgaran®, Organon Inc., West Orange, N.J.) in 0.32% citrate or in plasma anticoagulated with 0.32% citrate. Enoxaparin is commonly used clinically as a low molecular weight heparin (LMWH). Danaparoid is commonly used clinically as a non-heparin glycosaminoglycan anticoagulant. Currently, the only FDA approved drug to target UFH is protamine, which is not effective in vivo against LMWH or a non-heparin glycosaminoglycan such as danaparoid. Buffer and ATIII are added to form the heparin/ATIII complex, peptide is added, then Factor Xa, reporter dye substrate for Factor Xa activity, and stop solution, and the dye concentration is read at 405 nm. The absorbance of the dye increases with increasing Factor Xa activity, and thus is inversely proportional to the heparin (anti-Factor Xa activity) concentration. Peptides were tested in plasma obtained from three volunteers (A, B, and C). Platelet function inhibitors PG12 and theophylline were added to the blood immediately upon collection. […]

[2] = tested on: Lovenox ® Activity in Blood from Patients Treated with Lovenox ®; assay: Neutralizing Lovenox activity in blood from patients treated with Lovenox (anti-Factor Xa assay); details: Peptide 12 μg/ml
Method: Blood was obtained from volunteers who were being treated with Lovenox® for their medical conditions after obtaining signatures on informed consent forms as approved by the Institutional Review Board. The assays to test neutralization of Lovendx® were performed as described for Table 2. A dose response from 1-60 μg/ml was evaluated as in Table 2.
The dose response pattern for the effective peptides was similar to the dose response in control plasma to which Lovenox® had been added. Each data point represents the mean and standard deviation of triplicate analyses on the same sample of blood from each patient.

[3] = tested on: anti-Factor Xa Activity of the Low Molecular Weight Heparin Lovenox ®; assay: Anti-Factor Xa assay (Stachrom Heparin kit): neutralization of Lovenox in citrate or plasma in vitro; details: for Lovenox ® Neutralized: Lovenox 0.7 U/ml
Method: The ability of peptides such as (ARKKAAKA)3VLVLVLVL (SEQ ID NO:5) to neutralize the anti-Factor Xa activity of UFH and LMWH in vitro was tested using the Stachrom Heparin kit (Diagnostica Stago), a standard hematology laboratory assay used to measure the anti-Factor Xa activity of heparin. The assay was performed using the low molecular weight heparin enoxaparin sodium (Lovenox®, Aventis Pharmaceuticals, Inc.), unfractionated heparin (UFH), or the non-heparin glycosaminoglycan danaparoid sodium (Orgaran®, Organon Inc., West Orange, N.J.) in 0.32% citrate or in plasma anticoagulated with 0.32% citrate. Enoxaparin is commonly used clinically as a low molecular weight heparin (LMWH). Danaparoid is commonly used clinically as a non-heparin glycosaminoglycan anticoagulant. Currently, the only FDA approved drug to target UFH is protamine, which is not effective in vivo against LMWH or a non-heparin glycosaminoglycan such as danaparoid. Buffer and ATIII are added to form the heparin/ATIII complex, peptide is added, then Factor Xa, reporter dye substrate for Factor Xa activity, and stop solution, and the dye concentration is read at 405 nm. The absorbance of the dye increases with increasing Factor Xa activity, and thus is inversely proportional to the heparin (anti-Factor Xa activity) concentration. Peptides were tested in plasma obtained from three volunteers (A, B, and C). Platelet function inhibitors PG12 and theophylline were added to the blood immediately upon collection.
Results. […] (ARKKAAKA)3VLVLVLVL (SEQ ID NO:5) and VLVL(ARKKAAKA)3ARKKCAKA (SEQ ID NO:38) were able to neutralize about 0.4 U/ml anti-Factor Xa activity of LMWH at a concentration of 12 μg/ml, which would be an effective dose for patients. (AKKARA)6 (SEQ ID […]), (ARKKAAKA)4 (SEQ ID NO:31) and (ARKKAAKA)3ARKKCAKA […] 0.3-0.35 U/ml. In contrast, 12 μg protamine only neutralized about 0.25 U/ml of LMWH under these conditions.

SMILES: C[C@@H]1NC(=O)[C@H](C)NC(=O)[C@H](CCCCN)NC(=O)[C@H](CCCCN)NC(=O)[C@H](CCCNC(=N)N)NC(=O)[C@H](C)NC(=O)[C@H](C)NC(=O)[C@H](CCCCN)NC(=O)[C@H](C)NC(=O)[C@H](C)NC(=O)[C@H](CCCCN)NC(=O)[C@H](CCCCN)NC(=O)[C@H](CCCNC(=N)N)NC(=O)[C@H](C)NC(=O)[C@@H](N)CSSC[C@@H](C(=O)O)NC(=O)[C@H](C)NC(=O)[C@H](CCCCN)NC(=O)[C@H](C)NC(=O)[C@H](C)NC(=O)[C@H](CCCCN)NC(=O)[C@H](CCCCN)NC(=O)[C@H](CCCNC(=N)N)NC(=O)[C@H](C)NC(=O)[C@H](C)NC(=O)[C@H](CCCCN)NC(=O)[C@H](C)NC(=O)[C@H](C)NC(=O)[C@H](CCCCN)NC(=O)[C@H](CCCCN)NC(=O)[C@H](CCCNC(=N)N)NC(=O)[C@H](C)NC(=O)[C@H](C)NC(=O)[C@H](CCCCN)NC1=O [C(ARKKAAKA)4C, cyclized C(ARKKAAKA)4C] (H-CARKKAAKAARKKAAKAARKKAAKAARKKAAKAC-OH; disulfide 1-34)
- Unfractionated Heparin Neutralized ([1]; 1 μg/ml Peptide, A Plasma): 0.157 ± 0.032 U/ml
- Unfractionated Heparin Neutralized ([1]; 1 μg/ml Peptide, B Plasma): 0.194 ± 0.066 U/ml
- Unfractionated Heparin Neutralized ([1]; 1 μg/ml Peptide, C Plasma): 0.078 ± 0.027 U/ml
- Unfractionated Heparin Neutralized ([1]; 1 μg/ml Peptide, Citrate): 0.131 ± 0.070 U/ml
- Unfractionated Heparin Neutralized ([1]; 6 μg/ml Peptide, A Plasma): 0.442 ± 0.031 U/ml
- Unfractionated Heparin Neutralized ([1]; 6 μg/ml Peptide, B Plasma): 0.426 ± 0.064 U/ml
- Unfractionated Heparin Neutralized ([1]; 6 μg/ml Peptide, C Plasma): 0.447 ± 0.054 U/ml
- Unfractionated Heparin Neutralized ([1]; 6 μg/ml Peptide, Citrate): 0.590 ± 0.024 U/ml
- Unfractionated Heparin Neutralized ([1]; 12 μg/ml Peptide, A Plasma): 0.579 ± 0.128 U/ml
- Unfractionated Heparin Neutralized ([1]; 12 μg/ml Peptide, B Plasma): 0.552 ± 0.056 U/ml
- Unfractionated Heparin Neutralized ([1]; 12 μg/ml Peptide, C Plasma): 0.583 ± 0.066 U/ml
- Unfractionated Heparin Neutralized ([1]; 12 μg/ml Peptide, Citrate): 0.560 ± 0.012 U/ml
- Unfractionated Heparin Neutralized ([1]; 60 μg/ml Peptide, A Plasma): 0.605 ± 0.088 U/ml
- Unfractionated Heparin Neutralized ([1]; 60 μg/ml Peptide, B Plasma): 0.566 ± 0.036 U/ml
- Unfractionated Heparin Neutralized ([1]; 60 μg/ml Peptide, C Plasma): 0.572 ± 0.076 U/ml
- Unfractionated Heparin Neutralized ([1]; 60 μg/ml Peptide, Citrate): 0.560 ± 0.018 U/ml
- Unfractionated Heparin Neutralized ([1]; 120 μg/ml Peptide, A Plasma): 0.618 ± 0.051 U/ml
- Unfractionated Heparin Neutralized ([1]; 120 μg/ml Peptide, B Plasma): 0.512 ± 0.032 U/ml
- Unfractionated Heparin Neutralized ([1]; 120 μg/ml Peptide, C Plasma): 0.580 ± 0.051 U/ml
- Unfractionated Heparin Neutralized ([1]; 120 μg/ml Peptide, Citrate): 0.530 ± 0.019 U/ml
- Lovenox ® Neutralized ([2]; blood of Lovenox-treated Patient Number 1): 0.164 U/ml
- Lovenox ® Neutralized ([2]; blood of Lovenox-treated Patient Number 2): 0.132 U/ml
- Lovenox ® Neutralized ([2]; blood of Lovenox-treated Patient Number 3): 0.119 U/ml
- Lovenox ® Neutralized ([2]; blood of Lovenox-treated Patient Number 4): 0.337 U/ml
- Lovenox ® Neutralized ([2]; blood of Lovenox-treated Patient Number 5): 0.230 U/ml
- Lovenox ® Neutralized ([2]; blood of Lovenox-treated Patient Number 8): 0.163 U/ml
- Lovenox ® Neutralized ([2]; blood of Lovenox-treated Patient Number 9): 0.418 U/ml
- Lovenox ® Neutralized ([2]; blood of Lovenox-treated Patient Number 10): 0.302 U/ml
- Lovenox ® Neutralized ([2]; blood of Lovenox-treated Patient Number 11): 0.175 U/ml
- Lovenox ® Neutralized ([3]; 1 μg/ml Peptide, A Plasma): 0.034 ± 0.019 U/ml
- Lovenox ® Neutralized ([3]; 1 μg/ml Peptide, B Plasma): 0.022 ± 0.009 U/ml
- Lovenox ® Neutralized ([3]; 1 μg/ml Peptide, C Plasma): 0.011 ± 0.005 U/ml
- Lovenox ® Neutralized ([3]; 1 μg/ml Peptide, Citrate): 0.058 ± 0.039 U/ml
- Lovenox ® Neutralized ([3]; 6 μg/ml Peptide, A Plasma): 0.102 ± 0.012 U/ml
- Lovenox ® Neutralized ([3]; 6 μg/ml Peptide, B Plasma): 0.126 ± 0.039 U/ml
- Lovenox ® Neutralized ([3]; 6 μg/ml Peptide, C Plasma): 0.092 ± 0.014 U/ml
- Lovenox ® Neutralized ([3]; 6 μg/ml Peptide, Citrate): 0.245 ± 0.064 U/ml
- Lovenox ® Neutralized ([3]; 12 μg/ml Peptide, A Plasma): 0.213 ± 0.048 U/ml
- Lovenox ® Neutralized ([3]; 12 μg/ml Peptide, B Plasma): 0.251 ± 0.098 U/ml
- Lovenox ® Neutralized ([3]; 12 μg/ml Peptide, C Plasma): 0.218 ± 0.047 U/ml
- Lovenox ® Neutralized ([3]; 12 μg/ml Peptide, Citrate): 0.474 ± 0.024 U/ml
- Lovenox ® Neutralized ([3]; 60 μg/ml Peptide, A Plasma): 0.496 ± 0.016 U/ml
- Lovenox ® Neutralized ([3]; 60 μg/ml Peptide, B Plasma): 0.506 ± 0.012 U/ml
- Lovenox ® Neutralized ([3]; 60 μg/ml Peptide, C Plasma): 0.522 ± 0.009 U/ml
- Lovenox ® Neutralized ([3]; 60 μg/ml Peptide, Citrate): 0.554 ± 0.023 U/ml
- Lovenox ® Neutralized ([3]; 120 μg/ml Peptide, A Plasma): 0.551 ± 0.031 U/ml
- Lovenox ® Neutralized ([3]; 120 μg/ml Peptide, B Plasma): 0.538 ± 0.013 U/ml
- Lovenox ® Neutralized ([3]; 120 μg/ml Peptide, C Plasma): 0.592 ± 0.019 U/ml
- Lovenox ® Neutralized ([3]; 120 μg/ml Peptide, Citrate): 0.525 ± 0.028 U/ml
- anti-LMWH effect in citrate compared with plasma ([3]; Table 2A): greater anti-LMWH effect in citrate than in plasma
